Measurements reported in US7807439B2, “Staphylococcus aureus-specific detection media and identifying and/or counting method using same” (Biomerieux S.A., priority 2001, dated 2010).

Test system: S. aureus 0201035
Test: Experiment 7: effect of maltose on α-glucosidase activity, weak inocula
Format: cell-based, Staphylococcus aureus
Set-up: key: 0 corresponds to a lack of activity; 0.1 corresponds to the presence of a trace of coloration; 0.5 corresponds to the presence of a very pale coloration; 1 corresponds to the presence of a clear coloration of weak intensity; 1.5 corresponds to the presence of a coloration which is intermediate between colorations 1 and 2; 2 corresponds to the presence of a true coloration of medium intensity; 2.5 corresponds to the presence of a coloration which is intermediate between colorations 2 and 3; 3 corresponds to the presence of an intense coloration; 3.5 corresponds to the presence of a coloration which is intermediate between colorations 3 and 4; 4 corresponds to the presence of a very intense coloration
Settings: strain 5
Experimental: The maltose is solubilized in water at a concentration of, for example, 100 g/l, and then a sufficient volume to obtain the final concentrations above is added to the three molten media. The Staphylococcal strains derived from the bioMérieux internal collection were seeded onto each one of the chromogenic media on their own (closely spaced perpendicular streaks over the entire surface of the dish) using a suspension at 0.5 MacFarland diluted to 1/30000. The dishes were incubated at 37° C. for 48 hours. The colonies formed were examined visually after 18, 24 and 48 hours of incubation and the intensity of coloration of the colonies was marked. The coloration was noted and the intensity of these colorations was marked. The reading scale is the same as that used above for tables 2 and 4.

OC[C@H]1O[C@H](O[C@H]2[C@H](O)[C@@H](O)C(O)O[C@@H]2CO)[C@H](O)[C@@H](O)[C@@H]1O (mixture of isomers) [Maltose, maltose]
Intensity of coloration of the colonies (18 h, Maltose 100 mg/l): 0.3
Intensity of coloration of the colonies (18 h, Maltose 300 mg/l): 0.5
Intensity of coloration of the colonies (18 h, Maltose 400 mg/l): 0.5
Intensity of coloration of the colonies (24 h, Maltose 100 mg/l): 0.5
Intensity of coloration of the colonies (24 h, Maltose 300 mg/l): 1
Intensity of coloration of the colonies (24 h, Maltose 400 mg/l): 1
Intensity of coloration of the colonies (>40 h, Maltose 100 mg/l): 0.8
Intensity of coloration of the colonies (>40 h, Maltose 300 mg/l): 1
Intensity of coloration of the colonies (>40 h, Maltose 400 mg/l): 1.3
